The record followed here is patent US7678807B2, “Isoquinoline and benzo[H] isoquinoline derivatives, preparation and therapeutic use thereof as antagonists of the histamine H3 receptor” (sanofi-aventis, priority 2005, dated 2010).

The structures appear in SMILES notation. Counter-ions that a name gives are not always drawn. Bounds are passed on as bounds.

native histamine H3 receptor, sequence (Q9QYN8 1-397 isoform Q9QYN8-3): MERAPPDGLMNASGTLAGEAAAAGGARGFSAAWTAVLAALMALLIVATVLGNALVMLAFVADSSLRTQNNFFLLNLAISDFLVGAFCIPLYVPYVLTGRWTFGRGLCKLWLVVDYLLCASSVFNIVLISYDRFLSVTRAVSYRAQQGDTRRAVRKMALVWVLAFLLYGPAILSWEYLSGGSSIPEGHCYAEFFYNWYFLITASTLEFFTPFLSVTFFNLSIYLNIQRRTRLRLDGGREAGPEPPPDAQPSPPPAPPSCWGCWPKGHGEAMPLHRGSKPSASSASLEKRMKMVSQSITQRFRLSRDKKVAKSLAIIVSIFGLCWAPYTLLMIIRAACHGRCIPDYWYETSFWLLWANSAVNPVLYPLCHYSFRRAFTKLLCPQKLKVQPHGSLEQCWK
T1 sequence (Q9Y5N1 whole entry): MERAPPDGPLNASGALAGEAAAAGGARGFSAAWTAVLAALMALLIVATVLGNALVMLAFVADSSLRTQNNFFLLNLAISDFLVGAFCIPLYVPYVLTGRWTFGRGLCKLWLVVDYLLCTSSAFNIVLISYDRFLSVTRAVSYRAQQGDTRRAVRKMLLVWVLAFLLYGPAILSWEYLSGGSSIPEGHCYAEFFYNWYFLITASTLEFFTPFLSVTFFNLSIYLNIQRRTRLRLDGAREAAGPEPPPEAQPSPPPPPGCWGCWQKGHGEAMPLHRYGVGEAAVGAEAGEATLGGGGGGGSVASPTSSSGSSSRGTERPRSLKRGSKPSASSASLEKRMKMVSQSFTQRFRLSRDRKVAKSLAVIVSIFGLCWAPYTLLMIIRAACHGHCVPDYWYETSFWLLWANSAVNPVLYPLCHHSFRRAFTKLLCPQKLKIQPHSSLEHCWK

The first data set has as its target T1, human histamine H3 receptor (Homo sapiens, UniProt Q9Y5N1).
T1 construct: expressed in transfected cells; host or cells: CHO cells
Kind of data set: cAMP formation assay, inhibition of R-α-methylhistamine agonism, receptor transfected into CHO cells (EIA kit). As to conditions: EIA kit (Amersham). In kind it is cell-based. From the text:
The compounds of the invention of formula (I) were also subjected to a cAMP formation assay on the human histamine H3 receptor transfected into CHO cells by the inhibition of the agonism brought about by the specific binding of R-α-methylhistamine to this receptor, according to the methods described by Lovenberg, T. W. et al. in J. Pharmacol. Exp. Ther., 293, 771-778 (2000).
Compound `CN1CCCC1CCOc1ccc2c(c1)CN(CC1CCCCC1)CC2` (stereo not drawn) [Compound 5, 2-(cyclohexylmethyl)-7-[2-(1-methylpyrrolidin-2-yl)ethoxy]-1,2,3,4-tetrahydroisoquinoline] came in with a half-inhibitory concentration (IC50) of under 10 nM.

For another data set, the target named is native histamine H3 receptor (Rattus norvegicus, UniProt Q9QYN8). The data set is described as follows: in vitro affinity assay, specific binding of [3H]-N-α-methylhistamine, adult rat brain membrane preparation. As to conditions: adult rat brain membranes, read-out: Ki with regard to the H3 receptors. The text has this:
Thus, the compounds of the invention of formula (I) were subjected to an in vitro affinity assay on the native histamine H3 receptor in an adult rat brain membrane preparation by the specific binding of [^3H]-N-α-methylhistamine to this receptor, according to methods described by Korte, A. et al. in Biochem. Biophys. Res. Commun., 168, 979-986 (1990) and by West, R. E. Jr. et al. in Mol. Pharmacol., 38, 610-613 (1990).
Regarding `CN1CCCC1CCOc1ccc2c(c1)CN(CC1CCCCC1)CC2` (stereo not drawn) [Compound 5, 2-(cyclohexylmethyl)-7-[2-(1-methylpyrrolidin-2-yl)ethoxy]-1,2,3,4-tetrahydroisoquinoline], the inhibition constant Ki was found to be 0.1 nM.

System in another data set: not given
Assay: not given
Conditions: not given
Compound `CCCN1CCc2ccc(OCCC3CCCCN3C)cc2C1` (stereo not drawn) (as salt: hydrochloride) displayed a melting point of 186 to 190 °C. As for `CN1CCC[C@@H]1CCOc1ccc2c(c1)CN(CC1CCCCC1)CC2` (as salt: hydrochloride) [Compound 6, 2-(cyclohexylmethyl)-7-{2-[(2R)-1-methylpyrrolidin-2-yl]ethoxy}-1,2,3,4-tetrahydroisoquinoline], the melting point is 190 to 200 °C.

`CN1CCC[C@@H]1CCOc1ccc2c3c(ccc2c1)CCN(CC1CCCCC1)C3` (as salt: hydrochloride) [Compound 14, 2-(cyclohexylmethyl)-8-{2-[(2R)-1-methylpyrrolidin-2-yl]ethoxy}-1,2,3,4-tetrahydrobenzo[h]isoquinoline] yielded a melting point of 274 to 277 °C. Still for that read-out and setting: then `CN1CCC[C@H]1CCOc1ccc2c(c1)CN(CC1CCCCC1)CC2` (as salt: hydrochloride) [Compound 18, 2-(Cyclohexylmethyl)-7-(2-[(2S)-1-methylpyrrolidin-2-yl]ethoxy)-1,2,3,4-tetrahydroisoquinoline hydrochloride (1:2)], with 238 to 241 °C; and `CN1CCC[C@H]1CCOc1ccc2c(c1)CN(CC1CCCCC1)CC2` (as salt: oxalate) [Compound 7, 2-(cyclohexylmethyl)-7-{2-[(2S)-1-methylpyrrolidin-2-yl]ethoxy}-1,2,3,4-tetrahydroisoquinoline], with 195 to 199 °C. Still for that read-out and setting: with `CN1CCCCC1CCOc1ccc2c(c1)CN(CC1CCCCC1)CC2` (stereo not drawn) (as salt: oxalate) [Compound 9, 2-(cyclohexylmethyl)-7-[2-(1-methylpiperidin-2-yl)ethoxy]-1,2,3,4-tetrahydroisoquinoline] the figure was 101 to 111 °C; with `CN1CCCC1CCOc1ccc2c(c1)CN(Cc1ccccc1)CC2` (stereo not drawn) (as salt: oxalate) [Compound 10, 2-benzyl-7-[2-(1-methylpyrrolidin-2-yl)ethoxy]-1,2,3,4-tetrahydroisoquinoline], 143 to 150 °C.

Turning to `CN1CCCC(Oc2ccc3c(c2)CN(Cc2ccccc2)CC3)CC1` (stereo not drawn) (as salt: oxalate) [Compound 11, 2-benzyl-7-[(1-methylazepan-4-yl)oxy]-1,2,3,4-tetrahydroisoquinoline], the melting point lay within 108 to 116 °C.

In turn, `CN1CCCC(Oc2ccc3c(c2)CN(Cc2cccs2)CC3)CC1` (stereo not drawn) (as salt: oxalate) [Compound 12, 7-[(1-methylazepan-4-yl)oxy]-2-(2-thienylmethyl)-1,2,3,4-tetrahydroisoquinoline] came in with a melting point of 98 to 110 °C. The same measure, in the same setting: with `CN1CCC[C@H]1CCOc1ccc2c3c(ccc2c1)CCN(CC1CCCCC1)C3` (as salt: oxalate) [Compound 15, 2-(cyclohexylmethyl)-8-{2-[(2S)-1-methylpyrrolidin-2-yl]ethoxy}-1,2,3,4-tetrahydrobenzo[h]isoquinoline] the figure was 271 to 274 °C; with `CN1CCCC(Oc2ccc3c4c(ccc3c2)CCN(CC2CCCCC2)C4)CC1` (stereo not drawn) (as salt: oxalate) [Compound 16, 2-(cyclohexylmethyl)-8-[(1-methylazepan-4-yl)oxy]-1,2,3,4-tetrahydrobenzo[h]isoquinoline], 77 to 82 °C. On the same count and under the same terms, with `CN1CCCCC1CCOc1ccc2c3c(ccc2c1)CCN(CC1CCCCC1)C3` (stereo not drawn) (as salt: oxalate) [Compound 17, 2-(cyclohexylmethyl)-8-[2-(1-methylpiperidin-2-yl)ethoxy]-1,2,3,4-tetrahydrobenzo[h]isoquinoline] the figure was 124 to 127 °C; with `CC(C)CN1CCc2ccc(OCCC3CCCN3C)cc2C1` (stereo not drawn) (as salt: tartrate), 77 to 80 °C; with `CCCCN1CCc2ccc(OC3CCCN(C)CC3)cc2C1` (stereo not drawn) (as salt: tartrate), 96 to 107 °C. Same read-out and setting: with `CCCCN1CCc2ccc(OCCC3CCCN3C)cc2C1` (stereo not drawn) (as salt: tartrate) the figure was 95 to 105 °C; with `CCCN1CCc2ccc(OC3CCCN(C)CC3)cc2C1` (stereo not drawn) (as salt: tartrate), 76 to 97 °C. `CCCN1CCc2ccc(OCCC3CCCN3C)cc2C1` (stereo not drawn) (as salt: tartrate) came in with a melting point of 66 to 91 °C.

`CC(C)CCN1CCc2ccc(OCCC3CCCN3C)cc2C1` (stereo not drawn) (as salt: tartrate) [Compound 3, 2-(3-methylbutyl)-7-[2-(1-methylpyrrolidin-2-yl)ethoxy]-1,2,3,4-tetrahydroisoquinoline] gave a melting point of 61 to 65 °C. `CC(C)CCN1CCc2ccc(OC3CCCN(C)CC3)cc2C1` (stereo not drawn) (as salt: tartrate) [Compound 4, 7-[(1-methylazepan-4-yl)oxy]-2-(3-methylbutyl)-1,2,3,4-tetrahydroisoquinoline]: the melting point lay in the range of 60 to 70 °C.

One may read the IC50 as the concentration needed to halve the response being measured. A low value points to greater potency. What is called Ki is a measure of affinity in units of concentration, obtained from inhibition or displacement. The term melting point denotes the temperature of the solid-liquid transition.
